The target in test [1] is T1, IRAK4 (Homo sapiens (Human), UniProt Q9NWZ3). The experiment in a line: IRAK4 Degradation HiBiT Assay. The note with it: multiple runs, HiBiT-tagged Jurkat cells, 4 hrs; for DC50: read-out: Cellular IRAK4 HiBiT: DC50, Table 5; for Dmax: Jurkat, read-out: Cellular IRAK4 HiBiT: Dmax, Table 5. (In general: HiBiT is a short tag that completes a luciferase, so light tracks the accessible tagged protein.)
Target sequence in this assay (Q9NWZ3 whole entry): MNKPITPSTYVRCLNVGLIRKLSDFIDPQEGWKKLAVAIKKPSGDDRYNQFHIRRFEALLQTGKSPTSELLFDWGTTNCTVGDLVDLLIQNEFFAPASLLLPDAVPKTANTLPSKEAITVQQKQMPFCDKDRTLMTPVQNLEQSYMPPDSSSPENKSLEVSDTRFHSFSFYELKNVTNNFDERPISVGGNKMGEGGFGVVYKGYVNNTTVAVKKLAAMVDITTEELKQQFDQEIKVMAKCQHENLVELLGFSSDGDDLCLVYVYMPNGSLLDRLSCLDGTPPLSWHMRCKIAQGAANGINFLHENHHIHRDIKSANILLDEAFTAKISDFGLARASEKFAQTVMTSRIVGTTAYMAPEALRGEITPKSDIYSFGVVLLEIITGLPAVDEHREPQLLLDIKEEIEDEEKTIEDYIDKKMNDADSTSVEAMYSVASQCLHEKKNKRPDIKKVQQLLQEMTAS

For test [2], the target named is T1, IRAK4. Put plainly: IRAK4 Biochemical HTRF Kinase Assay. To be noted: Table 5; multiple runs; read-out: IRAK4 HTRF biochemical: IC50. In short, it runs like this: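 HTRF KinEASE STK S1 format measuring IRAK4 phosphorylation of biotinylated peptide; reaction solution of 5 μM STK-S1, 10 mM ATP, 10 mM MgCl2 added (stock, to 10 μl final), 90 min at ambient temperature, detection 60 min. IC50 from sixteen-point duplicate curves by non-linear regression.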
Target sequence in this assay (Q9NWZ3 whole entry, species assumed): as the sequence (Q9NWZ3 whole entry) above
(In general: Time-resolved FRET reads energy transfer from a long-lived donor to a nearby acceptor.)

The source of these data is patent US12528814B2, “Bifunctional degraders of interleukin-1 receptor-associated kinases and therapeutic use thereof” (NURIX THERAPEUTICS, INC., priority 2020, dated 2026).

A value given as a limit tells only on which side of the number the result lay.

Regarding `CNc1cc(-c2ccc3cc(C#N)cnn23)ncc1-c1nnc(N2CCN(C(=O)C3CCN(c4cccc5c4C(=O)N(C4CCC(=O)NC4=O)C5=O)CC3)CC2)s1` (stereo not shown) [Example 89, 7-(5-(5-(4-(1-(2-(2,6-dioxopiperidin-3-yl)-1,3-dioxoisoindolin-4-yl)piperidine-4-carbonyl)piperazin-1-yl)-1,3,4-thiadiazol-2-yl)-4-(methylamino)pyridin-2-yl)pyrrolo[1,2-b]pyridazine-3-carbonitrile], the DC50 (commonly the concentration at which degradation of the target reaches its halfway point) on IRAK4 [1] is more than 9980 nM. In addition, the IC50 (in general, the concentration that gives 50% inhibition) on IRAK4 [2] was determined as 0.9 nM.

Take `CNc1cc(-c2ccc3cc(C#N)cnn23)ncc1-c1nnc(N2CCC(NC(=O)C3CCN(c4cccc5c4C(=O)N(C4CCC(=O)NC4=O)C5=O)CC3)CC2)s1` (stereo not shown) [Example 90, N-(1-(5-(6-(3-cyanopyrrolo[1,2-b]pyridazin-7-yl)-4-(methylamino)pyridin-3-yl)-1,3,4-thiadiazol-2-yl)piperidin-4-yl)-1-(2-(2,6-dioxopiperidin-3-yl)-1,3-dioxoisoindolin-4-yl)piperidine-4-carboxamide]: the DC50 at IRAK4 [1] was more than 9980 nM. Further, the IC50 at IRAK4 [2] came to 0.8 nM.

As for `CNc1cc(-c2ccc3cc(C#N)cnn23)ncc1-c1nnc(N2CCN(C[C@H]3CCN(c4ccc5c(c4)n(C)c(=O)n5C4CCC(=O)NC4=O)C3)CC2)s1` (stereo partly drawn) [Example 91, 7-(5-(5-(4-(((3R)-1-(1-(2,6-dioxopiperidin-3-yl)-3-methyl-2-oxo-2,3-dihydro-1H-benzo[d]imidazol-5-yl)pyrrolidin-3-yl)methyl)piperazin-1-yl)-1,3,4-thiadiazol-2-yl)-4-(methylamino)pyridin-2-yl)pyrrolo[1,2-b]pyridazine-3-carbonitrile], on IRAK4 [1], the DC50 is more than 970 nM. In addition, the IC50 on IRAK4 [2] was determined as 1.6 nM.

Take `CNc1cc(-c2ccc3cc(C#N)cnn23)ncc1-c1nnc(N2CCN(C[C@@H]3CCN(c4ccc5c(c4)n(C)c(=O)n5C4CCC(=O)NC4=O)C3)CC2)s1` (stereo partly drawn) [Example 92, 7-(5-(5-(4-(((3S)-1-(1-(2,6-dioxopiperidin-3-yl)-3-methyl-2-oxo-2,3-dihydro-1H-benzo[d]imidazol-5-yl)pyrrolidin-3-yl)methyl)piperazin-1-yl)-1,3,4-thiadiazol-2-yl)-4-(methylamino)pyridin-2-yl)pyrrolo[1,2-b]pyridazine-3-carbonitrile]: the half-maximal degradation concentration (DC50) at IRAK4 [1] is more than 970 nM. For the same molecule, the IC50 at IRAK4 [2] was found to be 1 nM.

For the molecule `CNc1cc(-c2ccc3cc(C#N)cnn23)ncc1-c1nnc(N2CCC(NC[C@@H]3CCN(c4ccc5c(c4)n(C)c(=O)n5C4CCC(=O)NC4=O)C3)CC2)s1` (stereo partly drawn) [Example 93, 7-(5-(5-(4-((((3S)-1-(1-(2,6-dioxopiperidin-3-yl)-3-methyl-2-oxo-2,3-dihydro-1H-benzo[d]imidazol-5-yl)pyrrolidin-3-yl)methyl)amino)piperidin-1-yl)-1,3,4-thiadiazol-2-yl)-4-(methylamino)pyridin-2-yl)pyrrolo[1,2-b]pyridazine-3-carbonitrile], the DC50 on IRAK4 [1] is more than 9980 nM. Further, the IC50 at IRAK4 [2] is 0.9 nM.

Regarding `CNc1cc(-c2ccc3cc(C#N)cnn23)ncc1-c1nnc(N2CCN(C(=O)CN3CCN(c4ccc5c(c4)C(=O)N(C4CCC(=O)NC4=O)C5=O)CC3)CC2)s1` (stereo not shown) [Example 94, 7-(5-(5-(4-(2-(4-(2-(2,6-dioxopiperidin-3-yl)-1,3-dioxoisoindolin-5-yl)piperazin-1-yl)acetyl)piperazin-1-yl)-1,3,4-thiadiazol-2-yl)-4-(methylamino)pyridin-2-yl)pyrrolo[1,2-b]pyridazine-3-carbonitrile], at IRAK4 [1], the Dmax – broadly, the greatest extent of degradation seen – is 113% and the DC50 is 321 nM. Further, on IRAK4 [2], the IC50 worked out at 0.6 nM.

Regarding `CNc1cc(-c2ccc3cc(C#N)cnn23)ncc1-c1nnc(N2CCC(NC(=O)CN3CCN(c4ccc5c(c4)C(=O)N(C4CCC(=O)NC4=O)C5=O)CC3)CC2)s1` (stereo not shown) [Example 95, N-(1-(5-(6-(3-cyanopyrrolo[1,2-b]pyridazin-7-yl)-4-(methylamino)pyridin-3-yl)-1,3,4-thiadiazol-2-yl)piperidin-4-yl)-2-(4-(2-(2,6-dioxopiperidin-3-yl)-1,3-dioxoisoindolin-5-yl)piperazin-1-yl)acetamide], on IRAK4 [1], the Dmax was 108% and the DC50 turned out to be 9.74 nM. Besides, the IC50 at IRAK4 [2] is 0.8 nM.

`CNc1cc(-c2ccc3cc(C#N)cnn23)ncc1-c1nnc(N2CCN(C(=O)COc3cc(-c4scnc4C)ccc3CNC(=O)[C@@H]3C[C@@H](O)CN3C(=O)[C@@H](NC(=O)C3(F)CC3)C(C)(C)C)CC2)s1` [Example 96, (2S,4R)—N-(2-(2-(4-(5-(6-(3-cyanopyrrolo[1,2-b]pyridazin-7-yl)-4-(methylamino)pyridin-3-yl)-1,3,4-thiadiazol-2-yl)piperazin-1-yl)-2-oxoethoxy)-4-(4-methylthiazol-5-yl)benzyl)-1-((S)-2-(1-fluorocyclopropane-1-carboxamido)-3,3-dimethylbutanoyl)-4-hydroxypyrrolidine-2-carboxamide]: on IRAK4 [1], the Dmax is 90% and the DC50 was found to be 905 nM. For the same molecule, the IC50 on IRAK4 [2] amounted to 1.3 nM.

With `CNc1cc(-c2ccc3cc(C#N)cnn23)ncc1-c1nnc(N2CCC(NC(=O)COc3cc(-c4scnc4C)ccc3CNC(=O)[C@@H]3C[C@@H](O)CN3C(=O)[C@@H](NC(=O)C3(F)CC3)C(C)(C)C)CC2)s1` [Example 97, (2S,4R)—N-(2-(2-((1-(5-(6-(3-cyanopyrrolo[1,2-b]pyridazin-7-yl)-4-(methylamino)pyridin-3-yl)-1,3,4-thiadiazol-2-yl)piperidin-4-yl)amino)-2-oxoethoxy)-4-(4-methylthiazol-5-yl)benzyl)-1-((S)-2-(1-fluorocyclopropane-1-carboxamido)-3,3-dimethylbutanoyl)-4-hydroxypyrrolidine-2-carboxamide], at IRAK4 [1], the Dmax was determined as 59% and the DC50 stood at 265 nM. Also, on IRAK4 [2], the IC50 is 4.8 nM.

With `CNc1cc(-c2ccc3cc(C#N)cnn23)ncc1-c1nnc(N2CCN(C3CCN(C(=O)c4ccc5c(c4)C(=O)N(C4CCC(=O)NC4=O)C5=O)CC3)CC2)s1` (stereo not shown) [Example 98, 7-(5-(5-(4-(1-(2-(2,6-dioxopiperidin-3-yl)-1,3-dioxoisoindoline-5-carbonyl)piperidin-4-yl)piperazin-1-yl)-1,3,4-thiadiazol-2-yl)-4-(methylamino)pyridin-2-yl)pyrrolo[1,2-b]pyridazine-3-carbonitrile], at IRAK4 [1], the Dmax is 109% and the DC50 turned out to be 6.58 nM. In addition, the IC50 on IRAK4 [2] is 0.3 nM.

For `CNc1cc(-c2ccc3cc(C#N)cnn23)ncc1-c1nnc(N2CCN(C3CCN(C(=O)c4ccc5c(c4)C(=O)N(C4CCC(=O)NC4=O)C5)CC3)CC2)s1` (stereo not shown) [Example 99, 7-(5-(5-(4-(1-(2-(2,6-dioxopiperidin-3-yl)-3-oxoisoindoline-5-carbonyl)piperidin-4-yl)piperazin-1-yl)-1,3,4-thiadiazol-2-yl)-4-(methylamino)pyridin-2-yl)pyrrolo[1,2-b]pyridazine-3-carbonitrile], on IRAK4 [1], the Dmax came to 116% and the DC50 is 3.59 nM. Besides, at IRAK4 [2], the IC50 was determined as 0.3 nM.

With `CNc1cc(-c2ccc3cc(C#N)cnn23)ncc1-c1nnc(N2CCN(C3CCN(C(=O)Cc4ccc5c(c4)CN(C4CCC(=O)NC4=O)C5=O)CC3)CC2)s1` (stereo not shown) [Example 100, 7-(5-(5-(4-(1-(2-(2-(2,6-dioxopiperidin-3-yl)-1-oxoisoindolin-5-yl)acetyl)piperidin-4-yl)piperazin-1-yl)-1,3,4-thiadiazol-2-yl)-4-(methylamino)pyridin-2-yl)pyrrolo[1,2-b]pyridazine-3-carbonitrile], on IRAK4 [1], the Dmax was 111% and the DC50 was 4.41 nM. In addition, the IC50 on IRAK4 [2] was found to be 0.4 nM.

For the molecule `CNc1cc(-c2ccc3cc(C#N)cnn23)ncc1-c1nnc([C@H]2CC[C@H](NC(=O)C34CC(C(=O)N[C@H](C(=O)N5C[C@H](O)C[C@H]5C(=O)N[C@@H](C)c5ccc(-c6scnc6C)cc5)C(C)(C)C)(C3)C4)CC2)s1` [Example 101, N1-((1r,4S)-4-(5-(6-(3-cyanopyrrolo[1,2-b]pyridazin-7-yl)-4-(methylamino)pyridin-3-yl)-1,3,4-thiadiazol-2-yl)cyclohexyl)-N3-((S)-1-((2S,4R)-4-hydroxy-2-(((S)-1-(4-(4-methylthiazol-5-yl)phenyl)ethyl)carbamoyl)pyrrolidin-1-yl)-3,3-dimethyl-1-oxobutan-2-yl)bicyclo[1.1.1]pentane-1,3-dicarboxamide], on IRAK4 [1], the Dmax stood at 117% and the DC50 was 42.2 nM. At IRAK4 [2], the IC50 came out at 2.4 nM.

Consider `CNc1cc(-c2ccc3cc(C#N)cnn23)ncc1-c1nnc(C23CCC(NC(=O)CCOCCNc4ccc5c(c4)C(=O)N(C4CCC(=O)NC4=O)C5=O)(CC2)CC3)s1` (stereo not shown) [Example 102, N-(4-(5-(6-(3-cyanopyrrolo[1,2-b]pyridazin-7-yl)-4-(methylamino)pyridin-3-yl)-1,3,4-thiadiazol-2-yl)bicyclo[2.2.2]octan-1-yl)-3-(2-((2-(2,6-dioxopiperidin-3-yl)-1,3-dioxoisoindolin-5-yl)amino)ethoxy)propanamide], for which, at IRAK4 [1], the Dmax stood at 91% and the DC50 amounted to 25.3 nM. Besides, at IRAK4 [2], the IC50 stood at 0.8 nM.

On to `CNc1cc(-c2ccc3cc(C#N)cnn23)ncc1-c1nnc(C23CCC(NC(=O)C4CN(C5CCN(c6ccc7c(c6)C(=O)N(C6CCC(=O)NC6=O)C7=O)CC5)C4)(CC2)CC3)s1` (stereo not shown) [Example 103, N-(4-(5-(6-(3-cyanopyrrolo[1,2-b]pyridazin-7-yl)-4-(methylamino)pyridin-3-yl)-1,3,4-thiadiazol-2-yl)bicyclo[2.2.2]octan-1-yl)-1-(1-(2-(2,6-dioxopiperidin-3-yl)-1,3-dioxoisoindolin-5-yl)piperidin-4-yl)azetidine-3-carboxamide], for which, on IRAK4 [1], the Dmax was 99% and the DC50 was found to be 73.3 nM. At IRAK4 [2], the 50% inhibitory concentration (IC50) worked out at 1 nM.
